According to ChEMBL document CHEMBL6103654, “Design, Biological Characterization, and Discovery of Capromorelin Derivatives as Oral Growth Hormone Secretagogue Receptor Type 1a Agonist for the Treatment of Growth Hormone Deficiency” (J Med Chem, 2025):
The source made the active and inactive calls. No cut-off for these calls is given here.

Assays:
Rattus norvegicus [1] = test: Induction of growth hormone level in Juvenile Sprague-Dawley rat blood at 0.5 mg/kg, po administered as single dose measured after 40 mins by ELISA method (reference value: 40.1+/-11.0 ng/mL); format: functional
[2] = Metabolic stability in human liver microsome assessed as intrinsic clearance at 1 uM measured upto 60 mins in presence of NADPH by LC-MS/MS analysis; format: ADME; conditions: liver microsomes, read-out: CLH
[3] = AUC in male mouse at 2 mg/kg, po administered as single dose measured after 4 hrs; format: ADME, organism-based; conditions: in vivo
[4] = Elimination half life in male Sprague-Dawley rat at 2 mg/kg, po administered as single dose measured after 4 hrs; format: ADME, organism-based; conditions: in vivo, read-out: beta t1/2 (converted)
Rattus norvegicus [5] = test: In vivo agonist activity at GSHR in Sprague-Dawley rat assessed as increase in body weight at 10 to 100 mg/kg, po administered once daily for 14 days; format: functional, organism-based; conditions: dose 10-100 mg/kg, time 14.0 day
Rattus norvegicus [6] = test: Induction of growth hormone level in adult Sprague-Dawley rat blood at 0.1 mg/kg, po administered as single dose measured after 20 mins by ELISA method (reference value: 4.9+/-1.1 ng/mL); format: functional
[7] = Oral bioavailability in male dog at 2 mg/kg administered as single dose measured after 4 hrs; format: ADME, organism-based, Canis lupus familiaris; conditions: in vivo
[8] = Plasma protein binding in rat assessed as unbound fraction measured after 6 hrs by dialysis method; format: ADME, cell-free
[9] = Toxicity in Sprague-Dawley rat liver assessed as change in central veins at 10 to 100 mg/kg, po administered once daily for 14 days; format: organism-based; conditions: in vivo, 336 h, dose 10-100 mg/kg, time 14 day
[10] = Tmax in male monkey at 2 mg/kg, po administered as single dose measured after 4 hrs; format: ADME, organism-based, Macaca mulatta; conditions: rhesus monkey, in vivo
[11] = Clearance in male mouse plasma at 1 mg/kg, iv administered as single dose measured after 4 hrs; format: ADME, organism-based
[12] = Oral bioavailability in male monkey at 2 mg/kg administered as single dose measured after 4 hrs; format: ADME, organism-based, Macaca mulatta; conditions: rhesus monkey, in vivo
[13] = AUC in male dog at 2 mg/kg, po administered as single dose measured after 4 hrs; format: ADME, organism-based, Canis lupus familiaris; conditions: in vivo
[14] = Metabolic stability in monkey liver microsome assessed as hepatic clearance at 1 uM measured upto 60 mins in presence of NADPH by LC-MS/MS analysis; format: ADME, Macaca mulatta; conditions: rhesus monkey, liver microsomes, read-out: CLH
Rattus norvegicus [15] = test: Induction of growth hormone level in Juvenile Sprague-Dawley rat blood at 0.2 mg/kg, po administered as single dose measured after 10 mins by ELISA method (reference value: 23.2+/-5.6 ng/mL); format: functional
[16] = Metabolic stability in monkey liver microsome assessed as half life at 1 uM measured upto 60 mins in presence of NADPH by LC-MS/MS analysis; format: ADME, Macaca mulatta; conditions: rhesus monkey, liver microsomes
Rattus norvegicus [17] = test: Induction of growth hormone level in 4 week-old male Sprague-Dawley rat assessed as increase in body length at 2.5 mg/kg, po measured after 10 days; format: functional, organism-based; conditions: time 10.0 day
Rattus norvegicus [18] = test: Induction of growth hormone level in 6 week-old male Sprague-Dawley rat assessed as increase in body weight at 2.5 mg/kg, po measured after 10 days; format: functional, organism-based; conditions: time 10.0 day
[19] = Plasma protein binding in monkey assessed as unbound fraction measured after 6 hrs by dialysis method; format: ADME, cell-free, Macaca mulatta; conditions: rhesus monkey
Rattus norvegicus [20] = test: Induction of growth hormone level in adult Sprague-Dawley rat blood at 0.2 mg/kg, po administered as single dose measured immediately by ELISA method (reference value: 12.6+/-4.4 ng/mL); format: functional
[21] = Half life in male dog at 0.5 mg/kg, iv administered as single dose measured after 4 hrs; format: ADME, organism-based, Canis lupus familiaris; conditions: in vivo
[22] = molecular target: Growth hormone secretagogue receptor type 1 (Rattus norvegicus, UniProt O08725); test: Agonist activity at rat GHSR expressed in CHO cells incubated for 60 min by FLIPR assay; format: functional, cell-based
Sequence of Growth hormone secretagogue receptor type 1 (O08725 whole entry): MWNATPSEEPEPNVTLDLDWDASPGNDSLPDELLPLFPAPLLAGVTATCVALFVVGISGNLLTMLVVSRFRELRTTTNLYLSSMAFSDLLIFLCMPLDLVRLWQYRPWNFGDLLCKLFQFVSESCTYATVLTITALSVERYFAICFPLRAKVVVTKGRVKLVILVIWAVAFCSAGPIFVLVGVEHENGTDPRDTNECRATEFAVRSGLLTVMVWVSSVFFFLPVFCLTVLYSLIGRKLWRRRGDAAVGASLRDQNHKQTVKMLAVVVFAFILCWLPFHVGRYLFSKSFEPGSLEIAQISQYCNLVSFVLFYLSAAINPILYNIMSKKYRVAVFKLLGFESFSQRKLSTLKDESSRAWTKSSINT

[23] = Tmax in male mouse at 2 mg/kg, po administered as single dose measured after 4 hrs; format: ADME, organism-based; conditions: in vivo
[24] = Tmax in male Sprague-Dawley rat at 2 mg/kg, po administered as single dose measured after 4 hrs; format: ADME, organism-based; conditions: in vivo
[25] = Volume of distribution in male monkey at 0.5 mg/kg, iv administered as single dose measured after 4 hrs; format: ADME, organism-based, Macaca mulatta; conditions: rhesus monkey, in vivo
[26] = Plasma protein binding in dog assessed as unbound fraction measured after 6 hrs by dialysis method; format: ADME, cell-free, Canis lupus familiaris
[27] = molecular target: T1, 5-hydroxytryptamine receptor 3A (Homo sapiens, UniProt P46098); test: Inhibition of human HTR3A by fluorimetry analysis
T1 sequence (P46098 whole entry): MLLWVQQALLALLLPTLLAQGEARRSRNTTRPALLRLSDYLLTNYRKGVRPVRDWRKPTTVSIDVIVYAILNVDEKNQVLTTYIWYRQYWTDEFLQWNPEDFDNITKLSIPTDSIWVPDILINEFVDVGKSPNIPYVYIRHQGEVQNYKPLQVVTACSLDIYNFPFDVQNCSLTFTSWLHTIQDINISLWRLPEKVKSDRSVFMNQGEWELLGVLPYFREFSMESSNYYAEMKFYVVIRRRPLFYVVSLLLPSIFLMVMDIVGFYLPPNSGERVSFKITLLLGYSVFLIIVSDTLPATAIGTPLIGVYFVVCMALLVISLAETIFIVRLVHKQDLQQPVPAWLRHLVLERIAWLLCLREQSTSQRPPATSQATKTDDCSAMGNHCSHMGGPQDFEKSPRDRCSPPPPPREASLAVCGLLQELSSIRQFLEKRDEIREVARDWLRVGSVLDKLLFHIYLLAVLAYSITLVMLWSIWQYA

Rattus norvegicus [28] = species on record: Rattus norvegicus; test: Induction of growth hormone level in 6 week-old Sprague-Dawley rat assessed as increase in body length measured after 10 days; format: functional, organism-based; conditions: time 10.0 day
[29] = Half life in male mouse at 1 mg/kg, iv administered as single dose measured after 4 hrs; format: ADME, organism-based; conditions: in vivo
Rattus norvegicus [30] = test: Induction of growth hormone level in Juvenile Sprague-Dawley rat blood at 0.1 mg/kg, po administered as single dose measured after 2 hrs by ELISA method (reference value: 26.5+/-7.3 ng/mL); format: functional
[31] = Plasma protein binding in mouse assessed as unbound fraction measured after 6 hrs by dialysis method; format: ADME, cell-free
Rattus norvegicus [32] = test: Induction of growth hormone level in Juvenile Sprague-Dawley rat blood at 0.2 mg/kg, po administered as single dose measured immediately by ELISA method (reference value: 28.5+/-8.7 ng/mL); format: functional
Rattus norvegicus [33] = test: Induction of growth hormone level in Juvenile Sprague-Dawley rat blood at 0.2 mg/kg, po administered as single dose measured after 40 mins by ELISA method (reference value: 40.1+/-11.0 ng/mL); format: functional
Rattus norvegicus [34] = test: Induction of growth hormone level in adult Sprague-Dawley rat blood at 0.1 mg/kg, po administered as single dose measured after 10 mins by ELISA method (reference value: 13.7+/-7.2 ng/mL); format: functional
Rattus norvegicus [35] = test: Induction of growth hormone level in 6 week-old male Sprague-Dawley rat assessed as increase in body length at 2.5 mg/kg, po measured after 10 days; format: functional, organism-based; conditions: time 10.0 day

microsomal CLint at 1 µM [2]: 123 µL/min/mg | AUC at 4 h [3]: 93.1 ng·h/mL | half-life [4]: 166 min | bioavailability [7]: 43.6% | fraction unbound at 6 h [8]: 0.673 | Tmax [10]: 79.8 min | clearance [11]: 124 mL/min/kg | F [12]: 15.88% | AUC at 4 h [13]: 406 ng·h/mL | CLint scaled at 1 µM [14]: 541 mL/min/kg | half-life at 1 µM [16]: 3.1 min | fraction unbound at 6 h [19]: 0.46 | half-life [21]: 56.4 min | EC50 [22]: 0.007 nM | Tmax [23]: 15 min | Tmax [24]: 15 min | Vd [25]: 2.36 L/kg | fraction unbound at 6 h [26]: 0.563 | IC50 [27]: 3060 nM | half-life [29]: 16.2 min | fraction unbound at 6 h [31]: 0.621
Compound: CC(C)(N)C(=O)N[C@H](COCc1ccccc1)C(=O)N1CCC2=NN(C3CC3)C(=O)[C@]2(Cc2ccccc2)C1
Activity (Rattus norvegicus [1]): 74.6 ng/mL | Activity (Rattus norvegicus [5]): Active | Activity (Rattus norvegicus [6]): 74.5 ng/mL | Activity [9]: Non-toxic | Activity (Rattus norvegicus [15]): 200.8 ng/mL | Activity (Rattus norvegicus [17]): Active | Activity (Rattus norvegicus [18]): Active | Activity (Rattus norvegicus [20]): 22 ng/mL | Activity (Rattus norvegicus [28]): Dose-dependent-effect | Activity (Rattus norvegicus [30]): 36.7 ng/mL | Activity (Rattus norvegicus [32]): 33.4 ng/mL | Activity (Rattus norvegicus [33]): 66.5 ng/mL | Activity (Rattus norvegicus [34]): 216.1 ng/mL | Activity (Rattus norvegicus [35]): Active
